Type in all cases: cell-based, human
In assay [1] the test system is HCT116 cells. Nature of the assay: Transwell invasion assay, HCT116. The settings on record: amiodarone-treated HCT116 cells, Transwell invasion 48 h (FIG. 14(f)). The method, then: (§1) FIGS. 14(a) to 14(f) show the involvement of autophagy in miR-338-5p-related CRC migration and invasion in vitro. […] LC3 puncta were labelled with anti-LC3 antibody and fluorescent isothiocyanate-conjugated goat anti-rabbit IgG (green fluorescence). SW480 cell nuclei were stained with Hoechst 33258 (blue fluorescence). Images were photographed using florescent microscopy (the scale bar represents 10 μm). Data are presented as median (IQR) (n=5) (P value was analyzed using Mann-Whitney tests). […] (100 nM). […] Data are presented as median (IQR) (n=5) (P value was analyzed using Mann-Whitney tests). The scale bar represents 50 μm. […] Number of migrated cells was counted after 24 h. The scale bar represents 100 μm. Data are expressed as median (IQR) (n=6) (P value was analyzed using MannWhitney tests). […] The scale bar represents 50 μm. Data are expressed as means±SEM (n=8) (P value was analyzed using t tests).
(§2) To clarify the mechanism(s) underlying miR-338-5p induced migration and invasion of CRC, the involvement of autophagy was assessed. Specifically, the LC3 puncta (microtubule associated protein 1A/1B-LC3) formation and LC3 type II (LC3-II) protein expression were examined in cells treated with amiodarone (an autophagy inducer) by immunofluorescent assay.

Another assay relates to SW480 cells. Nature of the assay: Transwell migration assay, SW480. The settings on record: 10 μM, Transwell (FIG. 14(c)).
The test system of the next assay is LC3 puncta. As to the kind of experiment: LC3 puncta formation by immunofluorescent assay. The settings on record: 10 μM, SW480 cells. The procedure:
as §1, §2

In a further assay the test system is LC3-II. As to the kind of experiment: Western blot of LC3-II (autophagy). The settings on record: 10 μM, 48 h, CRC cells (SW480, HCT116). The method, then:
as §1
FIGS. 15(a) to 15(c) show the involvement of autophagy or EMT pathway in miR-338-5p-related CRC migration in vitro. […] Representative results of Transwell assays are also shown. […] Data are presented as means±SEM (n=8) (P values were analyzed using t tests). […] The number of migrated cells is shown as means±SEM (n=8) (P values were analyzed using t tests).
To clarify the mechanism(s) underlying miR-338-5p induced migration and invasion of CRC, the involvement of autophagy was assessed. […]
In general terms: In western blotting, separated proteins are transferred to a membrane and probed.

In assay [2] the test system is HCT116 cells. As to the kind of experiment: Wound-healing and Transwell migration assays, HCT116. The note with it: 10 μM for 48 h, HCT116 stable cells, wound healing 24 h (FIG. 14(e)). The procedure: Then, HCT116 cells transfected with miR-338-5p were assessed for cell migration in vitro with a wound-healing assay analyzed at 24 h and a Transwell assay analyzed at 48 h (Corning, Corning City, N.Y.). Cell invasion in vitro was estimated using a Transwell assay, in which cells were seeded on Transwell columns coated with a Matrigel membrane (BD Biosciences, San Jose, Calif.). Then, cells on the bottom of membrane were counted after 96 h. […] Thus, miR-338-5p promotes CRC migration and invasion in vitro.

With `CCCCc1oc2ccccc2c1C(=O)c1cc(I)c(OCCN(CC)CC)c(I)c1` [Amiodarone, amiodarone], the cell invasion entry in the assay with HCT116 cells [1] is listed as “inhibition of cell invasion”. Further, the cell migration result with SW480 cells and in the assay on HCT116 cells [2] was “inhibition of cell migration” throughout. In addition, the LC3 puncta formation result with LC3 puncta is “induced LC3 puncta formation”. Besides, the LC3-II expression result in the assay with LC3-II is “activated LC3-II expression”.
